{
  "source": "patent US10744072B2",
  "about": "“Cosmetic composition for oral administration for reinforcing the skin barrier” (NUTRICOS Technologies, priority 2015, dated 2020)",
  "type_in_all_cases": "cell-based",
  "key": {"SPRR2D": {"tested_on": "SPRR2D", "experiment": "Gene expression (RNAm) of SPRR2D in human keratinocytes NHEK per RT-qPCR", "conditions": "each compound at 10 μg/ml, 18 hours incubation, standardized to RPS28 and GAPDH", "protocol": "(§1) The effect of the lycopene and manganese was studied separately then in combination on the gene expression profile (RNAm) of human keratinocytes NHEK (normal human epidermal keratinocytes) per RT-qPCR.\n(§2) A 24-well plate was seeded with keratinocytes then placed into culture for 24 hours. The culture medium was then replaced with the test medium comprising according to the cases 0 (negative control), one or two tested compounds. The cells were incubated in this test medium for 18 hours then washed and frozen at −80° C. Each condition was carried out in triplicate. Two samples of each triplicate were grouped together, then the RNAm was extracted therefrom using TriPure Isolation Reagent® according to the supplier's recommendations. The ADNc was synthesized via reverse transcription of total RNA by “Transcriptor Reverse Transcriptase” from Roche. Then a quantitative PCR was performed in the presence of a fluorophore. The incorporation of fluorophore in the amplified DNA was measured during the PCR cycles. Two genes were used as a reference (RPS28 ad GADPH), in order to standardize the results. As such the level of expression of the studied genes was compared to the average level of expression of these two reference genes for all of the conditions tested.\n(§3) For this test, the source of lycopene is Lyc-o-Mato marketed by Lycored and the source manganese is manganese sulfate."}, "GAPDH": {"tested_on": "GAPDH", "experiment": "Gene expression of reference gene GAPDH in human keratinocytes NHEK per RT-qPCR", "conditions": "each compound at 10 μg/ml, 18 hours incubation", "protocol": "as §1, §2, §3"}, "RPS28": {"tested_on": "RPS28", "experiment": "Gene expression of reference gene RPS28 in human keratinocytes NHEK per RT-qPCR", "conditions": "each compound at 10 μg/ml, 18 hours incubation", "protocol": "as §1, §2, §3"}},
  "data": [
    {"substance": "manganese sulfate", "values": [
      {"measurement": "SPRR2D expression expressed as a percentage in relation to the conditions without added compound", "setting": "SPRR2D", "value": 106, "unit": "%"},
      {"measurement": "Control (GAPDH) expression expressed as a percentage in relation to the conditions without added compound", "setting": "GAPDH", "value": 96, "unit": "%"},
      {"measurement": "Control (RPS28) expression expressed as a percentage in relation to the conditions without added compound", "setting": "RPS28", "value": 117, "unit": "%"}
    ]}
  ]
}
